Results taken from patent US5728684A, “Determination of prodrugs metabolizable by the liver and therapeutic use thereof” (priority 1994, dated 1998).
“Also recorded” adds a separate entry of the source. Read-outs that look alike come from different tables or passages of the source.

Columns and labels:
HSV-2 [1] = settings: Lewandowski et al. 1989; cited from earlier work
Xanthine oxidase [2] = assay: Conversion of IPdR to IUdR by xanthine oxidase; type: biochemical; settings: isolated from cow milk
From the text: (§1) In order to determine which enzyme is responsible for the catalysts of this IPdR oxidation, a series of known oxido-reductases which have similar capability to oxidize a carbon atom with an adjacent amino group into a carbonyl functionality were explored for their ability to catalyze IPdR oxidation. […] A mixed function oxidase system prepared from the microsome of rat liver a broad spectrum of substrates and is NADPH dependent. […] Alcohol dehydrogenase (which can be obtained from Sigma) and alcohol oxidase (which can be obtained from Sigma) both reside in the soluble fraction of liver cell extracts, but the conversion of IPdR to […] was not detected with purified preparation of either enzyme under the same conditions that they converted their natural substrates effectively. […]

HSV-1 = settings: Lewandowski et al. 1989; cited from earlier work
Xanthine oxidase [3] = settings: shown previously (Lewandowski et al. 1989); cited from earlier work
[4] = Michaelis constant / Vmax of 2-pyrimidinone deoxyribose analogs with the liver enzyme; type: biochemical, rat; settings: rat, liver aldehyde oxidase
Experimental: (§2) Rat hepatic tissue was washed with ice-cold 1.15% KCl and blotted dry. The tissue was then homogenized with a tissue homogenizer, in a volume of 1.15% KCl that was 3 times the tissue weight, to form a 25% (w/v) homogenate. The homogenate was then centrifuged at 10,000 g for 10 minutes at 4° C. The resulting supernatant was filtered through Miracloth (similar to cheese cloth) then dialyzed overnight against 50 mM Tris-HCl buffer pH 7.5 and stored at -80° C. before use. Rat hepatocytes were obtained by a perfusion technique then the cells were extracted with 10 mM phosphate buffer, pH 7.5, containing 1M KCl and dialyzed for 4 hours against 50 mM Tris-HCl buffer pH 7.5.
(§3) For the standard assay condition, the reaction mixture contained 50 mM Tris-HCl, pH 7.5, 1 mM EDTA, 180 μM of IPdR (or its analogs) and approximately 0.01 mg protein of 10,000 g supernatant of tissue homogenate in a final volume of 500 μl and the incubation was at 37° C. for 10 minutes unless specified otherwise. 300 μl of reaction mixture was removed at the end of incubation and mixed with 630 μl acetonitrile then agitated. The precipitated protein were removed by centrifugation and the supernatant was lyophilized to dryness. The samples were reconstituted to the original aliquot volume with the HPLC mobile phase buffer and analyzed on a Alltech RP-18 column. IPdR, IUdR and IU were detected at a UV absorption wavelength of 230 nm, and IPdR was also detected at a UV absorption wavelength of 335 nm. The mobile phase was 10% acetonitrile/90%mM ammonium acetate, pH 6.8 and the flow rate was 1 ml/minute. Standard curves of IPdR and IUdR were established from the integration value of known concentrations.
(§4) Several 2-pyrimidinone deoxyribose analogs were examined for the conversion to their deoxyuridine counterparts. […] Nevertheless the relative Vmax for IPdR in the reaction at pH 7.5 and pH 9.5 is the same. […] The synthetic substrates for aldehyde oxidase appear to be better than its natural substrates, N^1 -methylnicotinamide and acetaldehyde, as judged by the potency of inhibition of N^1 -methylnicotinamide and acetaldehyde to the IPdR oxidation reaction (Table IV). The rate of reactivity of the liver enzyme with different IPdR analogs follows the order EPdR, IP, IPdR, 5-bromo-2-pyrimidinone deoxyribose (BPdR) and 5-methyl-2-pyrimidinone deoxyribose (MPdR) or 5-ethyl-2-pyrimidinone deoxyribose (EtPdR) (Table V). Electronegative substituents in the 5-position seemed to increase the substrate activity in this oxidation reaction.

aldehyde oxidase [5] = assay: as above; type: biochemical, rat; settings: pH 7.5 versus pH 9.5
Experimental: as §2, §3, §4

aldehyde oxidase [6] = assay: Substrate specificity of the conversion of RPdR to RUdR; type: in vitro ADME, rat; settings: substrate 180 μM; 2 to 4 separate experiments; in nmol/mg/min
Experimental: as §2, §3, §4
Substrate specificity of the conversion of […]

[7] = system: bone marrow, gut and liver tissue; assay: Thymidine replacement in tissues of athymic nude mice; type: in vivo
Experimental: Mice were administered daily oral dosages of 0, 100, 250 and 500 mg/kg. Percent dThd replacement as indicative of IPdR incorporation into bone marrow, gut and liver tissue was assayed according to known methods. […] Results presented in FIG. 6 are mean percent thymidine replacement ± one standard error of the mean. N is greater or equal to 3 for each dose.

HSV-2 [8] = settings: Lewandowski et al. 1989; cited from earlier work; remark: listed apart in the source
IPdR oxidase = assay: IUdR synthesis by partially purified IPdR oxidase; type: biochemical; settings: 37° C., rat liver enzyme purified 380 fold
Experimental: Differential fractionation centrifugation was used in an attempt to localize this IPdR conversion enzyme activity in the liver homogenate. The enzyme activity assay was performed on each fraction. […] Further purification was achieved by use of DEAE cellulose column chromatography, blue Sepharose column chromatography and glycerol gradient centrifugation in this order. This IPdR oxidase activity was purified 380 fold starting from the crude extracts of rat liver. The partially purified enzyme catalyzed IUdR synthesis at a rate of 3.8 μmoles per minute per milligram of protein at 37° C. under these conditions. The apparent molecular weight of this enzyme in both rats and humans as determined by centrifugation on a 20 to 40% glycerol gradient is approximately 280,000 dalton. Neither cofactor nor divalent cations requirement has been found for the rat liver enzyme or the human liver enzyme.

alcohol oxidase = assay: IPdR conversion by alcohol oxidase; type: biochemical; settings: purified preparation
From the text: as §1

Structure (SMILES): O=c1ncc(I)cn1[C@H]1C[C@H](O)[C@@H](CO)O1 [IPdR, 1-(2-deoxy-β-D-ribofuranosyl)-5-(iodo)-2-pyrimidinone]
- activity against HSV-2 in mice (HSV-2 [1]): potent activity
- conversion of IPdR to IUdR by xanthine oxidase (Xanthine oxidase [2]): failed to convert IPdR to IUdR
- activity against HSV-1 in cell culture (HSV-1): potent activity
- conversion of IPdR to IUdR by xanthine oxidase (Xanthine oxidase [3]): could not be converted to IUdR
- Km ([4]; pH 7.5): 150 µM
- Km ([4]; pH 9.5): 87 µM
- relative Vmax (aldehyde oxidase [5]): the same
- Conversion of RPdR to RUdR (aldehyde oxidase [6]): 11 ± 2
- incorporation of IUdR into liver ([7]; oral, 100, 250, 500 mg/kg daily): No incorporation of IUdR into liver was found
- percent thymidine replacement in bone marrow and gut ([7]; oral, 100, 250, 500 mg/kg daily (FIG. 6)): relatively low; also recorded: relatively small amounts
- activity against HSV-2 in cell culture (HSV-2 [8]): potent activity
- rate of IUdR synthesis by partially purified enzyme (IPdR oxidase): 3.8 μmoles per minute per milligram of protein
- conversion of IPdR by alcohol oxidase (alcohol oxidase): not detected
